According to PMC2585100 (Retrovirology, 2008):
Read-outs that look alike come from different tables or passages of the source.

Legend:
[1] = tested on: CD4+ CEM-NKr lymphocytic cell line; assay: Binding of peptides to CD4+ target cells (2F5 IgG, flow cytometry), cell line; parameters: species or system human; settings: 1 h at room temperature, RPMI 10% FCS, micro-molar range
Description: (§1) Binding of peptides was evaluated using either the lymphocytic cell line CD4^+- CEM-NK^r (NK-resistant) cells (NIH AIDS Reagent Programm, USA)or PHA-activated CD4^+ T cells purified from peripheral blood of 5 healthy donors using human CD4^+ T cells enrichment kit (StemCell Technologies Inc., France). 5 × 10^5 cells were incubated with indicated concentrations of peptide for 1 h at room temperature in a total volume of 50 microliter/μl of RPMI 10%FCS. After 2 wahses in cold medium, bound peptide was detected with the human IgG 2F5 (10 microg/μg), or irrelevant human IgG as control, for 1 h at 37°C followed anti-human IgG-FITC mAb (1:1000, Jackson ImmunoResearch, France). Binding of peptides to CD4^+ cells was evaluated by flow cytometry (FACSCalibur, Becton Dickinson) on 10^4 events, gated by forward and side scatter and analyzed for FL1 (FITC channel) using the Cytomix RXP software.

HIV-1Lai (X4 virus) = assay: Neutralization of HIV-1 infection of PBMC, intracellular p24 staining (X4 virus); assay type: cell-based; settings: peptide at 1 μM
Description: (§2) Neutralization of HIV-1 infectivity for PBMC was performed as previously described by analysing intracellular staining of p24 Ag after a single round of infection. […] PHA-stimulated PBMC (25 μl, 2 × 10^5 cells/well) were added to the mixture. After overnight incubation, 100 μl of culture medium containing 20 U/ml of IL-2 were added and cells were cultured for an additional 24 h at 37°C. For intracellular p24 Ag staining, cells were fixed with 4% paraformaldehyde for 20 min, permeabilized with 0.05% saponin and stained with a fluorescent anti-p24 mAb (PE-anti-p24, KC57 clone, Beckman Coulter, Hialeah, FL) as a 1/160 dilution in 1% BSA, 0.05% saponin in PBS (pH = 7.4) for 15–20 min at 4°C. The percentage of p24 positive cells was monitored by flow cytometry (FACScalibur with the XL software) by gating 20,000 events on the living cell population identified by forward- and side-scatter parameters.

[2] = parameters: method as in 2 sources, one per row (each row's own in cited_ref): ref 20 = [20]; PMID 17553560; doi:10.1016/j.ceca.2007.04.011; Yu H Alfsen A Tudor D Bomsel M The binding of HIV-1 gp41 membrane proximal domain to its mucosal receptor, galactosyl ceramide, is structure-dependent Cell Calcium 2008 43 73 82 17553560 10.1016/j.cec ||| ref 36 = [36]; PMID 17276993; doi:10.1074/jbc.M609148200; Liu S Jing W Cheung B Lu H Sun J Yan X Niu J Farmar J Wu S Jiang S HIV gp41 C-terminal heptad repeat contains multifunctional domains. Relation to mechanisms of action of anti-HIV peptides J Biol Chem; settings: Table 1, left column; cited from earlier work
[3] = tested on: T20-resistant HIV-1 strains (ENF-1 and ENF-2); assay: Single-cycle infectivity assay, T20-resistant strains, U373MG-CD4-CCR5-LTR-lacZ cells; assay type: cell-based; settings: at concentrations as much as 250- to 2000-fold higher than the IC50 of P5
Description: (§3) We constructed viruses bearing the envelope glycoproteins derived from virus populations present before and during T20 treatment of a patient who received T20 as part of a salvage therapy, as we reported earlier. […] Each chimeric proviral clone was obtained by replacing the AgeI-NheI fragment of a modified pNL4-3 vector (nt 6346 to 8287 in pNL4-3) by a AgeI-NheI PCR fragment amplified from the envelope subclone. Sequences of oligonucleotides used for PCR and site-directed mutagenesis can be provided upon request. […] [29].
(§4) These assays were performed as previously described. Two days before infection, U373MG-CD4-CCR5-LTR-lacZ cells were seeded into 96-well plates at a density of 2,000 cells/well. […] Forty hours after infection, cells were lysed using 100 μl/well of lysis buffer (5 mM MgCl2 and 0.1% NP-40 in 1× phosphate-buffered saline), prior to addition of 100 μl/well of chromogenic substrate (6 mM chlorophenol red-β-D-galactopyranoside; CPRG, Roche) in lysis buffer.

[4] = tested on: T20-sensitive HIV-1 strains (pre-ENF and JRCSF); assay: Single-cycle infectivity assay, T20-sensitive strains, U373MG-CD4-CCR5-LTR-lacZ cells; assay type: cell-based; settings: P5 more potent than T20
Description: as §3, §4

[5] = tested on: primary human CD4+ T cells; assay: Binding of peptides to CD4+ target cells (2F5 IgG, flow cytometry), primary cells; settings: 1 h at room temperature, RPMI 10% FCS, micro-molar range
Description: as §1

HIV-1JRCSF (R5 virus) = assay type: cell-based; settings: PBMC, peptide at 1 μM
Description: as §2

[6] = tested on: HIV-Lai env mediated fusion of Hela-env-Lai cells with HeLa P4.2 (Hela-CD4-LTR-LacZ) cells; assay: HIV-1 env-mediated cell-to-cell fusion assay (β-galactosidase read-out); assay type: cell-based; settings: for IC50: 6 h co-culture at 37°C, DMEM with calcium, others chemically synthesized; for inhibition of cell-cell fusion: peptide at 1 μM
Description: Fifteen minutes later, target cells (HeLa P4.2) were added to the wells (10^5 per well) and co-cultured for 6 h at 37°C. Then, cell-cell fusion was monitored by beta-galactosidase assay. Briefly, cells were lysed in 80 μl of lysis buffer (5% NP40 in PBS without CaCl2 and MgCl2) for 10 min and then centrifuged at 10,000 g for 5 min at 4°C. Equal volumes (50 μl) of lysate and reaction buffer (120 mM Na2HPO4, 80 mM NaH2PO4, 2 mM MgSO4, 20 mM KCl, 10 mM β-mercaptoethanol, 16 mM CPRG (chlorophenol red-β-D-galactopyranoside, Roche, France) were combined and incubated for 60 min at room temperature in the dark. The absorbance at 590 nm of each sample was measured.
Cell fusion experiments are convenient assays for analysis of the mechanism by which peptides inhibit virus entry into host cells. Hela-CD4-LTR-LacZ (P4.2) cells stably express the human CD4 molecule, CXCR4 and long terminal repeat (LTR) driven lacZ gene. Hela-env-Lai cells stably express HIV-Lai envelope glycoproteins gp120 and gp41, and the HIV-1 transactivator Tat. Fusion of Hela-Env-Lai cells and P4.2 cells results in transferring Tat to P4.2 cell cytosol. Tat in turn, transactivates the LTR and initiates transcription of the lacZ gene. The extent of fusion is directly related to β-galactosidase activity in cell lysates.
Different concentrations (≤ 1 μM) of peptides were incubated with HeLa-env-Lai cells in culture medium (DMEM) that contained calcium and magnesium, prior to addition of the P4.2 cells.

[7] = Far-UV circular dichroism, α-helical content; assay type: physicochemical; settings: 10 μM in PBS
Description: Far-UV circular dichroism (CD) was performed using 10 μM of each peptide solution in PBS. Each spectrum was recorded from 260 nm to 190 nm at 25°C by using a Jasco CD spectrophotometer (Jasco, Japan) with a cell path length of 0.05 cm. Spectra were collected as an average of three scans, with a scan speed of 20 nm/min and a response time of 2 sec. The control (solvent) CD spectra were subtracted to eliminate background effects. Data were reported in millidegrees and converted to molar ellipticity [θ] in units as follows: degree cm^2 dmol^-1. The percentage of α-helical content was estimated by assuming that a [θ]222 value of -33000 deg cm^2 dmol^-1corresponds to 100% α-helix.
CD spectroscopy is a practical and efficient method for secondary structure characterization of a protein or peptide.
Far-UV CD spectra were all recorded at room temperature, with a path-length of 0.05 cm. Peptide concentration was 10 microM in PBS, pH 7.2.

Substance: Enfuvirtide
- binding to CD4+ lymphocyte cell line CEM (in words) [1]: unable to bind
- inhibitory activity, X4 virus infection (HIV-1Lai (X4 virus); PBMC): greater than 90%
- inhibition of PBMC infection by X4 virus (in words) (HIV-1Lai (X4 virus); human PBMC, HIV-Lai): potent inhibition
- [θ]222 [2]: -2 10^-3deg cm^2dmol^-1
- inhibition of T20-resistant strains (in words) [3]: failed to inhibit
- activity against T20-sensitive strains (in words) [4]: active
- binding to primary human CD4+ T cells (in words) [5]: unable to bind
- inhibitory activity, R5 virus infection (HIV-1JRCSF (R5 virus)): greater than 90%

Substance: LZ: peptide comprising the gp41 N-terminal leucine zipper domain, a.a. 560–594 (EAQQHLLQLTVWGIKQLQARILAVERYLKDQQLLG; gp41; UniProt P04578 560-594, looked up, fragment)
- IC50 ([6]; Table 2, right column, alone or in the presence of LZ, P7 recombinant, read-out: IC50 (nM, Mean ± S.D.)): > 1000 nM
- inhibition of cell-cell fusion [6]: negligible inhibition
- [θ]222 ([7]; Table 1, chemically synthesized peptides alone or with LZ): -4 10^-3deg cm^2dmol^-1

Substance: N36: gp41 NHR peptide a.a. 546–581, from the AIDS Research and Reference Reagent Program [Peptide N36]
- IC50 ([6]; Table 2, left column, peptides 50 to 1000 nM, P5L recombinant, read-out: IC50g (nM, Mean ± S.D.)): > 1000 nM
- inhibition of cell-cell fusion [6]: negligible inhibition
- [θ]222 ([7]; Table 1, left column, chemically synthesized peptides alone or with N36): -6 10^-3deg cm^2dmol^-1
